Measurements from the CheMixHub viscosity set.

Experiment: xn = mol fraction of the nth substance listed

CC(=O)C(=O)[O-].[Na+] + O
viscosity [mPa·s], 101 kPa
Settings	x1 = 0.00036	x1 = 0.000648	x1 = 0.000936	x1 = 0.00137	x1 = 0.00151	x1 = 0.0018
298.15 K	0.8972	0.9038	0.9104	0.9173	0.9206	0.9267
303.15 K	0.8044	0.811	0.8176	0.826	0.8308	0.8369
308.15 K	0.7257	0.7308	0.7375	0.7474	0.7507	0.7569
313.15 K	0.6602	0.6669	0.6735	0.682	0.6868	0.6931

C1CCOC1 + CCCCO
101 kPa
Settings	viscosity [mPa·s]
298.15 K, x1 = 0.0512	2.141
298.15 K, x1 = 0.102	1.844
298.15 K, x1 = 0.1406	1.658
298.15 K, x1 = 0.183	1.504
298.15 K, x1 = 0.3126	1.154
298.15 K, x1 = 0.4002	0.9777
298.15 K, x1 = 0.4443	0.9072
298.15 K, x1 = 0.5	0.8514
298.15 K, x1 = 0.5121	0.8099
298.15 K, x1 = 0.5924	0.7195
298.15 K, x1 = 0.6795	0.6388
298.15 K, x1 = 0.7633	0.5776
298.15 K, x1 = 0.8268	0.5346
298.15 K, x1 = 0.8944	0.5033
298.15 K, x1 = 0.9677	0.4714
313.15 K, x1 = 0.0576	1.529
313.15 K, x1 = 0.1184	1.324
313.15 K, x1 = 0.173	1.166
313.15 K, x1 = 0.2282	1.035
313.15 K, x1 = 0.3549	0.831
313.15 K, x1 = 0.4542	0.7105
313.15 K, x1 = 0.5481	0.6237
313.15 K, x1 = 0.6462	0.5526
313.15 K, x1 = 0.7386	0.4994
313.15 K, x1 = 0.8296	0.4574
313.15 K, x1 = 0.8747	0.439
313.15 K, x1 = 0.9154	0.4256
313.15 K, x1 = 0.9584	0.4129

CC1COC(=O)O1 (configuration not stated) + CCCCCO
298.15 K, 101 kPa
Settings	viscosity [mPa·s]
x1 = 0.0218	3.297
x1 = 0.0861	3.235
x1 = 0.1654	3.161
x1 = 0.2433	3.094
x1 = 0.3101	3.029
x1 = 0.374	2.973
x1 = 0.4207	2.933
x1 = 0.5003	2.865
x1 = 0.5691	2.808
x1 = 0.6326	2.756
x1 = 0.7214	2.685
x1 = 0.8072	2.618
x1 = 0.8655	2.574
x1 = 0.9573	2.505

CCCC[P+](CCCC)(CCCC)CCCC.CS(=O)(=O)[O-] + O=S1(=O)CCCC1
Settings	viscosity [mPa·s]
313.15 K, 101.33 kPa, x1 = 0.5	84.22

CCCCCCCCCCCCCCCCC + CCCCCCCCCCO
100 kPa, x1 = 0.076
Settings	viscosity [mPa·s]
298.2 K	10.21
308.2 K	6.94
318.2 K	4.87

Cc1ccccc1 + CCCO
Settings	viscosity [mPa·s]
293.15 K, 100 kPa, x2 = 0.125	0.611
293.15 K, 100 kPa, x2 = 0.25	0.636
293.15 K, 100 kPa, x2 = 0.375	0.747
293.15 K, 100 kPa, x2 = 0.5	0.875
293.15 K, 100 kPa, x2 = 0.625	1.055
293.15 K, 100 kPa, x2 = 0.75	1.312
293.15 K, 100 kPa, x2 = 0.875	1.685
298.15 K, 100 kPa, x2 = 0.0553	0.5596
298.15 K, 100 kPa, x2 = 0.1089	0.572
298.15 K, 100 kPa, x2 = 0.1987	0.5972
298.15 K, 100 kPa, x2 = 0.319	0.6607
298.15 K, 100 kPa, x2 = 0.4308	0.7379
298.15 K, 100 kPa, x2 = 0.5349	0.7998
298.15 K, 100 kPa, x2 = 0.632	0.9538
298.15 K, 100 kPa, x2 = 0.723	1.116
298.15 K, 100 kPa, x2 = 0.8083	1.265
298.15 K, 100 kPa, x2 = 0.8884	1.563
298.15 K, 100 kPa, x2 = 0.9639	1.825
298.15 K, 101 kPa, x2 = 0.1	0.558
298.15 K, 101 kPa, x2 = 0.2	0.588
298.15 K, 101 kPa, x2 = 0.3	0.6389
298.15 K, 101 kPa, x2 = 0.4	0.7091
298.15 K, 101 kPa, x2 = 0.5	0.801
298.15 K, 101 kPa, x2 = 0.6	0.9211
298.15 K, 101 kPa, x2 = 0.7	1.08
298.15 K, 101 kPa, x2 = 0.8	1.292
298.15 K, 101 kPa, x2 = 0.9	1.576
303 K, 101 kPa, x1 = 0.1006	1.367
303 K, 101 kPa, x1 = 0.2012	1.171
303 K, 101 kPa, x1 = 0.3009	1.025
303 K, 101 kPa, x1 = 0.3981	0.902
303 K, 101 kPa, x1 = 0.5016	0.785
303 K, 101 kPa, x1 = 0.6052	0.699
303 K, 101 kPa, x1 = 0.7001	0.645
303 K, 101 kPa, x1 = 0.8095	0.598
303 K, 101 kPa, x1 = 0.9011	0.546
303.15 K, 101.33 kPa, x1 = 0.1141	1.376
303.15 K, 101.33 kPa, x1 = 0.1926	1.182
303.15 K, 101.33 kPa, x1 = 0.2912	0.982
303.15 K, 101.33 kPa, x1 = 0.3778	0.866
303.15 K, 101.33 kPa, x1 = 0.4778	0.761
303.15 K, 101.33 kPa, x1 = 0.6242	0.651
303.15 K, 101.33 kPa, x1 = 0.7421	0.587
303.15 K, 101.33 kPa, x1 = 0.8737	0.541
303.15 K, 101.33 kPa, x1 = 0.9517	0.527
308.15 K, 100 kPa, x2 = 0.0553	0.5017
308.15 K, 100 kPa, x2 = 0.1089	0.5107
308.15 K, 100 kPa, x2 = 0.1987	0.5293
308.15 K, 100 kPa, x2 = 0.319	0.572
308.15 K, 100 kPa, x2 = 0.4308	0.6289
308.15 K, 100 kPa, x2 = 0.5349	0.6996
308.15 K, 100 kPa, x2 = 0.632	0.7945
308.15 K, 100 kPa, x2 = 0.723	0.8952
308.15 K, 100 kPa, x2 = 0.8083	1.019
308.15 K, 100 kPa, x2 = 0.8884	1.24
308.15 K, 100 kPa, x2 = 0.9639	1.422
308.15 K, 101.33 kPa, x1 = 0.1141	1.251
308.15 K, 101.33 kPa, x1 = 0.1926	1.078
308.15 K, 101.33 kPa, x1 = 0.2912	0.899
308.15 K, 101.33 kPa, x1 = 0.3778	0.795
308.15 K, 101.33 kPa, x1 = 0.4778	0.703
308.15 K, 101.33 kPa, x1 = 0.6242	0.608
308.15 K, 101.33 kPa, x1 = 0.7421	0.553
308.15 K, 101.33 kPa, x1 = 0.8737	0.514
308.15 K, 101.33 kPa, x1 = 0.9517	0.499
313.15 K, 100 kPa, x2 = 0.125	0.479
313.15 K, 100 kPa, x2 = 0.25	0.495
313.15 K, 100 kPa, x2 = 0.375	0.554
313.15 K, 100 kPa, x2 = 0.5	0.625
313.15 K, 100 kPa, x2 = 0.625	0.728
313.15 K, 100 kPa, x2 = 0.75	0.876
313.15 K, 100 kPa, x2 = 0.875	1.087
313.15 K, 101.33 kPa, x1 = 0.1141	1.15
313.15 K, 101.33 kPa, x1 = 0.1926	0.99
313.15 K, 101.33 kPa, x1 = 0.2912	0.83
313.15 K, 101.33 kPa, x1 = 0.3778	0.736
313.15 K, 101.33 kPa, x1 = 0.4778	0.655
313.15 K, 101.33 kPa, x1 = 0.6242	0.57
313.15 K, 101.33 kPa, x1 = 0.7421	0.521
313.15 K, 101.33 kPa, x1 = 0.8737	0.491
313.15 K, 101.33 kPa, x1 = 0.9517	0.476

c1ccc2ccccc2c1 + Nc1ccccc1
viscosity [mPa·s]
Settings	308.15 K	313.15 K	318.15 K	323.15 K
101 kPa, x1 = 0.2092	2.365	2.092	1.868	1.687
101 kPa, x1 = 0.3036	2.224	1.988	1.783	1.616
101.33 kPa, x1 = 0.209	2.365	2.092	1.868	1.687
101.33 kPa, x1 = 0.2092	2.365	–	–	–
101.33 kPa, x1 = 0.2497	2.291	–	–	–
101.33 kPa, x1 = 0.3	2.224	1.988	1.783	1.616
101.33 kPa, x1 = 0.3036	2.224	–	–	–

CC(=O)Oc1ccccc1C(=O)O + CC(C)O
viscosity [mPa·s], 101 kPa
Settings	x1 = 0.00057	x1 = 0.000763	x1 = 0.000955	x1 = 0.00115	x1 = 0.00134	x1 = 0.00153	x1 = 0.00191
293.15 K	2.382	2.382	2.383	2.384	2.385	2.386	2.389
298.15 K	2.045	2.045	2.046	2.046	2.047	2.048	2.049
303.15 K	1.763	1.764	1.764	1.765	1.766	1.767	1.768
308.15 K	1.524	1.524	1.525	1.525	1.525	1.526	1.526
310.15 K	1.437	1.438	1.438	1.438	1.439	1.439	1.44
313.15 K	1.392	1.392	1.393	1.393	1.394	1.394	1.395
